Data: US6706663B2, “Herbicidal 3-heterocyclic substituted benzisothiazole and benzisoxazole compounds” (Wyeth, priority 2000, dated 2004)

How the values were obtained:
[1] = test system: SAGPY (Sagittaria pygmaea); test: Flooded paddy, postemergence weed control; assay type: in vivo, L.; details: postemergence weeds, rated 3-4 weeks after treatment
Outline: (§1)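 Weeds 3–5 cm tall and rice at 1.5–2.5 leaf stage in containers flooded 1.5–3 cm deep; compounds in 50/50 v/v aqueous/acetone injected into flood water at about 0.0320–0.2500 kg/ha. Greenhouse-held; visual 0–9 rating versus untreated control after three to four weeks.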

[2] = test system: TRZAWR (Wheat, Winter, cv Riband); test: Preemergence herbicidal evaluation; assay type: in vivo, Triticum aestivum; details: preemergence, rated 4-5 weeks after treatment
Outline: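 Seeds planted in potting soil cups and sprayed preemergence with aqueous acetone compound solution. Greenhouse-grown; rated 4–5 weeks after treatment on a 0-9 visual scale (stand, vigor, malformation, size, chlorosis, appearance) versus control.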

ZEAMX (Corn, Field) [3] = test: Postemergence herbicidal evaluation; assay type: in vivo, Zea mays, L.
Outline: (§2)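 Seedlings grown about two weeks in flats, sprayed, then kept under standard greenhouse care. Rated visually 4–5 weeks after treatment on a 0–9 scale (stand, vigour, malformation, size, chlorosis, overall appearance) relative to untreated control; repeat tests averaged.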

[4] = test system: GLXMAW (Soybean, Williams); test: Preemergence herbicidal evaluation; assay type: in vivo, Glycine max, (L.) Merr. cv Williams; details: preemergence, rated 4-5 weeks after treatment
[5] = test system: ABUTH (Abutilon theophrasti); test: Preemergence herbicidal evaluation; assay type: in vivo, Medic.; details: preemergence, rated 4-5 weeks after treatment
ZEAMX (Corn, Field) [6] = test: Preemergence herbicidal evaluation; assay type: in vivo, Zea mays, L.; details: preemergence, rated 4-5 weeks after treatment
[7] = test system: GLXMAW (Soybean, Williams); test: Postemergence herbicidal evaluation; assay type: in vivo, Glycine max, (L.) Merr. cv Williams
Outline: as §2

ORYSAT (Rice, Tebonnet) [8] = test: Flooded paddy, post-transplant rice tolerance; assay type: in vivo, Oryza sativa, (L.) Tebonnet; details: flooded paddy, post-transplant rice, rated 3-4 weeks after treatment, 0-9 rating scale
Outline: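 Two ten-day-old Tebonnet rice seedlings transplanted into silt loam, then flooded with water held at 1.5–3 cm above soil; herbicide applied post-transplant. Plants kept in greenhouse and rated visually 0–9 versus untreated control for stand, vigor, malformation, size and chlorosis.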

[9] = test system: ECHORC (Echinochloa oryzoides); test: Flooded paddy, postemergence weed control; assay type: in vivo, Echinochloa oryzoides (Ard.) Fritsch.; details: postemergence weeds, rated 3-4 weeks after treatment
Outline: as §1

ORYSAT (Rice, Tebonnet) [10] = test: Flooded paddy, post-transplant and postemergence rice tolerance; assay type: in vivo, Oryza sativa, (L.) Tebonnet; details: post-transplant rice, rated 3-4 weeks after treatment
Outline: as §1

CYPIR (Cyperus iria) = test: Flooded paddy, postemergence weed control; assay type: in vivo; details: postemergence weeds, rated 3-4 weeks after treatment
Outline: as §1

[11] = test system: IPOHE (Ipomoea hederacea); test: Preemergence herbicidal evaluation; assay type: in vivo, (L.) Jacq.; details: preemergence, rated 4-5 weeks after treatment
[12] = test system: CYPSE (Cyperus serotinus); test: Flooded paddy, postemergence weed control; assay type: in vivo, Rottb.; details: postemergence weeds, rated 3-4 weeks after treatment
Outline: as §1

[13] = test system: ECHCG (Echinochloa crus-galli); test: Postemergence herbicidal evaluation; assay type: in vivo, (L.) Beau
Outline: as §2

[14] = test system: ECHORC (Echinochloa oryzoides); test: Flooded paddy, preemergence weed control; assay type: in vivo, Echinochloa oryzoides (Ard.) Fritsch.; details: rated 3-4 weeks after treatment, 0-9 rating scale
Outline: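 Visual 0–9 ratings versus controls scored stand, vigor, malformation, size, chlorosis and overall appearance. Plants grew from seeds or propagating organs sown 0.5 cm deep in silt loam, with water held 1.5–3 cm above the soil for the whole test under greenhouse care.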

[15] = test system: MOOVA (Monochoria vaginalis); test: Flooded paddy, postemergence weed control; assay type: in vivo, Presl.; details: postemergence weeds, rated 3-4 weeks after treatment
Outline: as §1

Cc1cscc1-c1nsc2ccc(-n3c(=O)cc(C(F)(F)F)n(C)c3=O)cc12 [Compound 26, 1-methyl-3-[3-(4-methyl-3-thienyl)-1,2-benzisothiazol-5-yl]-6-(trifluoromethyl)uracil]
herbicide rating (0-9) SAGPY ([1]; 0.0320 kg/ha into flood water): 0.0 | herbicide rating (0-9) SAGPY ([1]; 0.0620 kg/ha into flood water): 0.0 | herbicide rating (0-9) SAGPY ([1]; 0.1250 kg/ha into flood water): 0.0 | TRZAWR preemergence herbicidal rating ([2]; Rate 0.0620 kg/ha): 2.0 | TRZAWR preemergence herbicidal rating ([2]; Rate 0.1250 kg/ha): 3.0 | TRZAWR preemergence herbicidal rating ([2]; Rate 0.2500 kg/ha): 7.0 | Postemergence herbicidal rating, ZEAMX (ZEAMX (Corn, Field) [3]; rate 0.0320 kg/ha): 5.0 | Postemergence herbicidal rating, ZEAMX (ZEAMX (Corn, Field) [3]; rate 0.0620 kg/ha): 5.5 | GLXMAW preemergence herbicidal rating ([4]; Rate 0.0620 kg/ha): 1.0 | GLXMAW preemergence herbicidal rating ([4]; Rate 0.1250 kg/ha): 3.0 | GLXMAW preemergence herbicidal rating ([4]; Rate 0.2500 kg/ha): 4.5 | ABUTH preemergence herbicidal rating ([5]; Rate 0.0620 kg/ha): 4.0 | ABUTH preemergence herbicidal rating ([5]; Rate 0.1250 kg/ha): 9.0 | ABUTH preemergence herbicidal rating ([5]; Rate 0.2500 kg/ha): 9.0 | ZEAMX preemergence herbicidal rating (ZEAMX (Corn, Field) [6]; Rate 0.0620 kg/ha): 2.5 | ZEAMX preemergence herbicidal rating (ZEAMX (Corn, Field) [6]; Rate 0.1250 kg/ha): 3.5 | ZEAMX preemergence herbicidal rating (ZEAMX (Corn, Field) [6]; Rate 0.2500 kg/ha): 6.5 | Postemergence herbicidal rating, GLXMAW ([7]; rate 0.0320 kg/ha): 6.0 | Postemergence herbicidal rating, GLXMAW ([7]; rate 0.0620 kg/ha): 6.5 | herbicidal rating, ORYSAT (rice tolerance) (ORYSAT (Rice, Tebonnet) [8]; rate 0.0080 kg/ha): 0.0 | herbicidal rating, ORYSAT (rice tolerance) (ORYSAT (Rice, Tebonnet) [8]; rate 0.0320 kg/ha): 2.0 | herbicidal rating, ORYSAT (rice tolerance) (ORYSAT (Rice, Tebonnet) [8]; rate 0.1250 kg/ha): 4.3 | herbicide rating (0-9) ECHORC ([9]; 0.0320 kg/ha into flood water): 7.0 | herbicide rating (0-9) ECHORC ([9]; 0.0620 kg/ha into flood water): 9.0 | herbicide rating (0-9) ECHORC ([9]; 0.1250 kg/ha into flood water): 9.0 | herbicide rating (0-9) ORYSAT (rice tolerance) (ORYSAT (Rice, Tebonnet) [10]; 0.0320 kg/ha into flood water): 4.0 | herbicide rating (0-9) ORYSAT (rice tolerance) (ORYSAT (Rice, Tebonnet) [10]; 0.0620 kg/ha into flood water): 5.0 | herbicide rating (0-9) ORYSAT (rice tolerance) (ORYSAT (Rice, Tebonnet) [10]; 0.1250 kg/ha into flood water): 6.0 | herbicide rating (0-9) CYPIR (CYPIR (Cyperus iria); 0.0320 kg/ha into flood water): 9.0 | herbicide rating (0-9) CYPIR (CYPIR (Cyperus iria); 0.0620 kg/ha into flood water): 9.0 | herbicide rating (0-9) CYPIR (CYPIR (Cyperus iria); 0.1250 kg/ha into flood water): 9.0 | IPOHE preemergence herbicidal rating ([11]; Rate 0.0620 kg/ha): 1.5 | IPOHE preemergence herbicidal rating ([11]; Rate 0.1250 kg/ha): 4.0 | IPOHE preemergence herbicidal rating ([11]; Rate 0.2500 kg/ha): 6.0 | herbicide rating (0-9) CYPSE ([12]; 0.0320 kg/ha into flood water): 7.0 | herbicide rating (0-9) CYPSE ([12]; 0.0620 kg/ha into flood water): 7.0 | herbicide rating (0-9) CYPSE ([12]; 0.1250 kg/ha into flood water): 7.0 | Postemergence herbicidal rating, ECHCG ([13]; rate 0.0320 kg/ha): 3.0 | Postemergence herbicidal rating, ECHCG ([13]; rate 0.0620 kg/ha): 3.0 | herbicidal rating, ECHORC ([14]; rate 0.0080 kg/ha): 8.0 | herbicidal rating, ECHORC ([14]; rate 0.0320 kg/ha): 9.0 | herbicidal rating, ECHORC ([14]; rate 0.1250 kg/ha): 9.0 | herbicide rating (0-9) MOOVA ([15]; 0.0320 kg/ha into flood water): 4.0 | herbicide rating (0-9) MOOVA ([15]; 0.0620 kg/ha into flood water): 4.0 | herbicide rating (0-9) MOOVA ([15]; 0.1250 kg/ha into flood water): 6.0

Cc1cc(C)c(-c2nsc3ccc(-n4c(=O)cc(C(F)(F)F)n(C)c4=O)cc23)s1 [Compound 27, 3-[3-(3,5-dimethyl-2-thienyl)-1,2-benzisothiazol-5-yl]-1-methyl-6-(trifluoromethyl)uracil]
herbicide rating (0-9) SAGPY ([1]; 0.0320 kg/ha into flood water): 0.0 | herbicide rating (0-9) SAGPY ([1]; 0.0620 kg/ha into flood water): 0.0 | herbicide rating (0-9) SAGPY ([1]; 0.1250 kg/ha into flood water): 0.0 | TRZAWR preemergence herbicidal rating ([2]; Rate 0.0620 kg/ha): 2.0 | TRZAWR preemergence herbicidal rating ([2]; Rate 0.1250 kg/ha): 2.0 | TRZAWR preemergence herbicidal rating ([2]; Rate 0.2500 kg/ha): 2.0 | Postemergence herbicidal rating, ZEAMX (ZEAMX (Corn, Field) [3]; rate 0.0320 kg/ha): 5.0 | Postemergence herbicidal rating, ZEAMX (ZEAMX (Corn, Field) [3]; rate 0.0620 kg/ha): 5.0 | GLXMAW preemergence herbicidal rating ([4]; Rate 0.0620 kg/ha): 1.0 | GLXMAW preemergence herbicidal rating ([4]; Rate 0.1250 kg/ha): 2.0 | GLXMAW preemergence herbicidal rating ([4]; Rate 0.2500 kg/ha): 1.0 | ABUTH preemergence herbicidal rating ([5]; Rate 0.0620 kg/ha): 5.0 | ABUTH preemergence herbicidal rating ([5]; Rate 0.1250 kg/ha): 6.0 | ABUTH preemergence herbicidal rating ([5]; Rate 0.2500 kg/ha): 9.0 | ZEAMX preemergence herbicidal rating (ZEAMX (Corn, Field) [6]; Rate 0.0620 kg/ha): 3.0 | ZEAMX preemergence herbicidal rating (ZEAMX (Corn, Field) [6]; Rate 0.1250 kg/ha): 3.0 | ZEAMX preemergence herbicidal rating (ZEAMX (Corn, Field) [6]; Rate 0.2500 kg/ha): 3.0 | Postemergence herbicidal rating, GLXMAW ([7]; rate 0.0320 kg/ha): 6.5 | Postemergence herbicidal rating, GLXMAW ([7]; rate 0.0620 kg/ha): 6.0 | herbicidal rating, ORYSAT (rice tolerance) (ORYSAT (Rice, Tebonnet) [8]; rate 0.0080 kg/ha): 1.0 | herbicidal rating, ORYSAT (rice tolerance) (ORYSAT (Rice, Tebonnet) [8]; rate 0.0320 kg/ha): 2.0 | herbicidal rating, ORYSAT (rice tolerance) (ORYSAT (Rice, Tebonnet) [8]; rate 0.1250 kg/ha): 3.7 | herbicide rating (0-9) ECHORC ([9]; 0.0320 kg/ha into flood water): 0.0 | herbicide rating (0-9) ECHORC ([9]; 0.0620 kg/ha into flood water): 7.0 | herbicide rating (0-9) ECHORC ([9]; 0.1250 kg/ha into flood water): 9.0 | herbicide rating (0-9) ORYSAT (rice tolerance) (ORYSAT (Rice, Tebonnet) [10]; 0.0320 kg/ha into flood water): 2.0 | herbicide rating (0-9) ORYSAT (rice tolerance) (ORYSAT (Rice, Tebonnet) [10]; 0.0620 kg/ha into flood water): 4.0 | herbicide rating (0-9) ORYSAT (rice tolerance) (ORYSAT (Rice, Tebonnet) [10]; 0.1250 kg/ha into flood water): 6.0 | herbicide rating (0-9) CYPIR (CYPIR (Cyperus iria); 0.0320 kg/ha into flood water): 9.0 | herbicide rating (0-9) CYPIR (CYPIR (Cyperus iria); 0.0620 kg/ha into flood water): 9.0 | herbicide rating (0-9) CYPIR (CYPIR (Cyperus iria); 0.1250 kg/ha into flood water): 9.0 | IPOHE preemergence herbicidal rating ([11]; Rate 0.1250 kg/ha): 4.0 | IPOHE preemergence herbicidal rating ([11]; Rate 0.2500 kg/ha): 3.0 | herbicide rating (0-9) CYPSE ([12]; 0.0320 kg/ha into flood water): 0.0 | herbicide rating (0-9) CYPSE ([12]; 0.0620 kg/ha into flood water): 0.0 | herbicide rating (0-9) CYPSE ([12]; 0.1250 kg/ha into flood water): 4.0 | Postemergence herbicidal rating, ECHCG ([13]; rate 0.0320 kg/ha): 4.0 | Postemergence herbicidal rating, ECHCG ([13]; rate 0.0620 kg/ha): 5.0 | herbicidal rating, ECHORC ([14]; rate 0.0080 kg/ha): 6.5 | herbicidal rating, ECHORC ([14]; rate 0.0320 kg/ha): 9.0 | herbicidal rating, ECHORC ([14]; rate 0.1250 kg/ha): 9.0 | herbicide rating (0-9) MOOVA ([15]; 0.0320 kg/ha into flood water): 6.0 | herbicide rating (0-9) MOOVA ([15]; 0.0620 kg/ha into flood water): 9.0 | herbicide rating (0-9) MOOVA ([15]; 0.1250 kg/ha into flood water): 9.0
